Laboratory results from ChEMBL document CHEMBL1152778, “Design, synthesis, and biological evaluation of (2R,alphaS)-3,4-dihydro-2-[3-(1,1,2,2-tetrafluoroethoxy)phenyl]-5-[3-(trifluoromethoxy)-phenyl]-alpha-(trifluoromethyl)-1(2H)-quinolineethanol as potent and orally active cholesteryl ester transfer protein inhibitor” (J Med Chem, 2009).
The source made the active and inactive calls. The rule behind the calls is not given here.

Tests used:
[1] = Plasma concentration in normal chow diet-fed cynomolgus monkey at 10 mg/kg, po for 5 days; format: ADME, organism-based, Macaca fascicularis; design: dose 10 mg/kg, route oral
Cynomolgus monkey [2] = assay: Ex vivo inhibition of CETP in normal chow diet-fed cynomolgus monkey at 3 mg/kg, po for 5 days by Roar assay; format: functional; conditions: Macaca fascicularis, 120 h
[3] = target: T1, Phosphatidylcholine-sterol acyltransferase (Homo sapiens) (UniProt P04180); assay: Inhibition of LCAT activity in human plasma assessed as change in cholesteryl ester/free cholesterol ratio by cell based assay
T1 sequence (whole entry): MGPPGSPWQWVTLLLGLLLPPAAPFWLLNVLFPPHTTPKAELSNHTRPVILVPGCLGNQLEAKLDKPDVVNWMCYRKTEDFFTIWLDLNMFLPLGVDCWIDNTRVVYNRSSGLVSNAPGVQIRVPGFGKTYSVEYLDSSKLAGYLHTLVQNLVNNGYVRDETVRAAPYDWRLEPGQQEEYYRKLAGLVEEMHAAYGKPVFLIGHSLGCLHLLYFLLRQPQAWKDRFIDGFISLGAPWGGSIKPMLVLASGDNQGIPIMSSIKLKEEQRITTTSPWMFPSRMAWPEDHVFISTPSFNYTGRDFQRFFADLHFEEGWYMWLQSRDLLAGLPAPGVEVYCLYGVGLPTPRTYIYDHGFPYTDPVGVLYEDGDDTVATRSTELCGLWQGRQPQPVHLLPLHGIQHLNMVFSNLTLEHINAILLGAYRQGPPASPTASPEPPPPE

Cynomolgus monkey [4] = assay: Increase in HDLC level in normal chow diet-fed cynomolgus monkey at 3 mg/kg, po for 5 days measured after 10 hrs of last dose; format: functional, Macaca fascicularis
Cynomolgus monkey [5] = assay: Ex vivo inhibition of CETP in normal chow diet-fed cynomolgus monkey at 30 mg/kg, po for 5 days by Roar assay; format: functional; conditions: Macaca fascicularis, 120 h
Hamster = assay: Increase in HDLC level in high-fat fed hamster model at 30 mg/kg, po for 5 days measured after 2 hrs of last dose; format: functional, Cricetinae
[6] = target: T2, Hepatic triacylglycerol lipase (Homo sapiens) (UniProt P11150); assay: Inhibition of hepatic lipase activity assessed as release of free fatty acid from hydrolysis of VLDL by cell based assay
T2 sequence (whole entry): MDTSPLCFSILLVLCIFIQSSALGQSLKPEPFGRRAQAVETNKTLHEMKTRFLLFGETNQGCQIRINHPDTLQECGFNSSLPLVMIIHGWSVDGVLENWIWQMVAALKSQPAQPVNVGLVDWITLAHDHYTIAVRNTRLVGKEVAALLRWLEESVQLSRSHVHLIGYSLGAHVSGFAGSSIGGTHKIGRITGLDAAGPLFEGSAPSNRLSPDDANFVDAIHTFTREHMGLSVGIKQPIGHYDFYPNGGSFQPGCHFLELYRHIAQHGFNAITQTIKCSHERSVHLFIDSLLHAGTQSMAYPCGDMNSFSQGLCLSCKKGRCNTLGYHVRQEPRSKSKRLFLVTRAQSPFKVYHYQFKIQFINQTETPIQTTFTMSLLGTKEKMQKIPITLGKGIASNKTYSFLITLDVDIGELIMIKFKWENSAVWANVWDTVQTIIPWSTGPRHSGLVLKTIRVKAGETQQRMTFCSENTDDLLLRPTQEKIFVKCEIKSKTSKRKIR

[7] = Plasma concentration in normal chow diet-fed cynomolgus monkey at 30 mg/kg, po for 5 days; format: ADME, organism-based, Macaca fascicularis; design: dose 30 mg/kg, route oral
[8] = Plasma concentration in normal chow diet-fed cynomolgus monkey at 3 mg/kg, po for 5 days; format: ADME, organism-based, Macaca fascicularis; design: dose 3 mg/kg, route oral
[9] = target: T3, Endothelial lipase (Homo sapiens) (UniProt Q9Y5X9); assay: Inhibition of endothelial lipase by cell based assay
T3 sequence (whole entry): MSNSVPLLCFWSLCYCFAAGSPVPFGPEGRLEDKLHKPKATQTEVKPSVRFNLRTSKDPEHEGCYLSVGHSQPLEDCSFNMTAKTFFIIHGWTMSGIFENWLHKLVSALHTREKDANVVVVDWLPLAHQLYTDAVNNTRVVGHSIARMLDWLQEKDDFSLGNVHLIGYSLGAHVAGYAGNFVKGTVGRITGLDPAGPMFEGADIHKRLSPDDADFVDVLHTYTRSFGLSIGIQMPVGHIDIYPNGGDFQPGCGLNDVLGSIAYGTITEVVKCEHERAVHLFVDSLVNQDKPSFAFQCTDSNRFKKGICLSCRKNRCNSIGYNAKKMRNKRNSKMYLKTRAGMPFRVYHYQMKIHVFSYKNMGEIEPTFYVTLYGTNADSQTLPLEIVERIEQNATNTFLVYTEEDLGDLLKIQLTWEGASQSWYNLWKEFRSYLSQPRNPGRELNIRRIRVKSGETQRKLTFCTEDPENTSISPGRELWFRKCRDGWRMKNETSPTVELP

Cynomolgus monkey [10] = assay: Increase in HDLC level in normal chow diet-fed cynomolgus monkey at 30 mg/kg, po for 5 days measured after 10 hrs of last dose; format: functional, Macaca fascicularis
Cynomolgus monkey [11] = assay: Increase in HDLC level in normal chow diet-fed cynomolgus monkey at 10 mg/kg, po for 5 days measured after 10 hrs of last dose; format: functional, Macaca fascicularis
Cynomolgus monkey [12] = assay: Ex vivo inhibition of CETP in normal chow diet-fed cynomolgus monkey at 10 mg/kg, po for 5 days by Roar assay; format: functional; conditions: Macaca fascicularis, 120 h
[13] = target: Phospholipid transfer protein (Homo sapiens) (UniProt P55058); assay: Inhibition of PLTP activity assessed as phosphatidylcholine transferred from [3H]phosphatidylcholine (dipalmitoyl)-labeled liposomes to HDL by cell based liquid scintillation counter
Sequence of Phospholipid transfer protein (Homo sapiens) (P55058 whole entry): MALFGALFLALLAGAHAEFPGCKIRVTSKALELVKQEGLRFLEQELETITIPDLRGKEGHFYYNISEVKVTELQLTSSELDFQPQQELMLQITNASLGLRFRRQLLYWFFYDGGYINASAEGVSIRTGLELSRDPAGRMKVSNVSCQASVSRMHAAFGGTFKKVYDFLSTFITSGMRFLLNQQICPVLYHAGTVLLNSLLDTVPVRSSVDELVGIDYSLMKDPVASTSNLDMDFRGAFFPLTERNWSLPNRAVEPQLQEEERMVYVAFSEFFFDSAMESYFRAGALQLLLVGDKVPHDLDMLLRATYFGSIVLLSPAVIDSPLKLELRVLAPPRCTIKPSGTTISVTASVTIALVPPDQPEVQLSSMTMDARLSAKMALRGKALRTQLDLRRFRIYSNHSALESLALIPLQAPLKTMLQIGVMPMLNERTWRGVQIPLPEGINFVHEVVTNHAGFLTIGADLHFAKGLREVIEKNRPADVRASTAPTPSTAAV

Mus musculus = assay: Increase in HDLC level in normal chow diet-fed human CETP transgenic mouse model at 30 mg/kg, po for 5 days measured after 2 hrs of last dose; format: functional
[14] = target: T4, Lipoprotein lipase (Homo sapiens) (UniProt P06858); assay: Inhibition of lipoprotein lipase activity assessed as release of free fatty acid from hydrolysis of VLDL by cell based assay
T4 sequence (whole entry): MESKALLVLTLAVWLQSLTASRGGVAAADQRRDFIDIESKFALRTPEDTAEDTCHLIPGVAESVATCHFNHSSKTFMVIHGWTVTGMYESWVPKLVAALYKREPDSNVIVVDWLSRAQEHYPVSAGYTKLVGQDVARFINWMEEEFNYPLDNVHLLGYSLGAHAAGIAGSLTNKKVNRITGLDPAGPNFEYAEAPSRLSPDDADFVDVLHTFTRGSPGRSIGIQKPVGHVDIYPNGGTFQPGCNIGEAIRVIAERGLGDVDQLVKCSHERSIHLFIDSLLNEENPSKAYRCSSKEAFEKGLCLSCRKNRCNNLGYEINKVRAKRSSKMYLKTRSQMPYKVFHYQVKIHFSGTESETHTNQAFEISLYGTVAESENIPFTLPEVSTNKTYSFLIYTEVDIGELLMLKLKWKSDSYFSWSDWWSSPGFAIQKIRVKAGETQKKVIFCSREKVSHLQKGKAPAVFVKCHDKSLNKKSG

[15] = target: T5, Microsomal triglyceride transfer protein large subunit (Homo sapiens) (UniProt P55157); assay: Inhibition of microsomal triglyceride transfer protein by cell based assay
T5 sequence (whole entry): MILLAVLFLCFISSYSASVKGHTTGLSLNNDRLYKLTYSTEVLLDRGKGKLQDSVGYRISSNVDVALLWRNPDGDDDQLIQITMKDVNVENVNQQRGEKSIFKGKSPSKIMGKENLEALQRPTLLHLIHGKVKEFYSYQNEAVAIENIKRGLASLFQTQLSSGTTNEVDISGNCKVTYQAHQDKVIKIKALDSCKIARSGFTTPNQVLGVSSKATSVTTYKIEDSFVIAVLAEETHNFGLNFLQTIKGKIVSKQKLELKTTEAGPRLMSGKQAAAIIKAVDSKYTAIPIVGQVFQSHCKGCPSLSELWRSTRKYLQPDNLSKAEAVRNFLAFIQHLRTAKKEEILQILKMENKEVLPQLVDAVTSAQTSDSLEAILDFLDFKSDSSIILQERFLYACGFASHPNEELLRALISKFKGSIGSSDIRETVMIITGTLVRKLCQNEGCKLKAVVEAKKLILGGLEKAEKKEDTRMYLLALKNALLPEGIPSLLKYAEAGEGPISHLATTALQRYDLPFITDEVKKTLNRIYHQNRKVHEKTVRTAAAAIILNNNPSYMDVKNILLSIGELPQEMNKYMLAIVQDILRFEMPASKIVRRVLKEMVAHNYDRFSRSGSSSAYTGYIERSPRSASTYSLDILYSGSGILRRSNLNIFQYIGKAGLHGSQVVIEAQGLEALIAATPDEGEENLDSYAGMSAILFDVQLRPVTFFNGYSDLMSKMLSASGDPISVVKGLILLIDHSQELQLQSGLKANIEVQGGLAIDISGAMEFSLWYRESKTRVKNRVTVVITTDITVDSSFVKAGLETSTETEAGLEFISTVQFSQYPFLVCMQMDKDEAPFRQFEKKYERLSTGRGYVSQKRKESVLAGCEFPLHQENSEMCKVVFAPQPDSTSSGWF

concentration at 120 h [1]: 1300 nM | Activity [3]: inactive | Activity [6]: inactive | concentration at 120 h [7]: 2900 nM | concentration at 120 h [8]: 300 nM | Activity [9]: inactive | Activity [13]: inactive | Activity [14]: inactive | Activity [15]: inactive
SMILES: CCOC(=O)N1c2ccc(C(F)(F)F)cc2[C@@H](N(Cc2cc(C(F)(F)F)cc(C(F)(F)F)c2)C(=O)OC)C[C@H]1CC [TORCETRAPIB]
inhibition in vivo at 3 mg/kg (Cynomolgus monkey [2]): 35% | Activity (Cynomolgus monkey [4]): 24% | inhibition in vivo at 30 mg/kg (Cynomolgus monkey [5]): 85% | Activity (Hamster): 44% | Activity (Cynomolgus monkey [10]): 44% | Activity (Cynomolgus monkey [11]): 41% | inhibition in vivo at 10 mg/kg (Cynomolgus monkey [12]): 66% | Activity (Mus musculus): 28%
